Experimental data: patent US12043599B2, “Herbicidal compounds” (SYNGENTA PARTICIPATIONS AG, priority 2018, dated 2024)

Assays:
Assay type in all cases: in vivo
Details in all cases: 250 g/h, evaluated after 13 days
[1] = system: Alopecurus myosuroides (ALOMY); assay: Pre-emergence herbicidal glasshouse test, percentage damage
Procedure, shortened: (§1)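 Spray: 250 g/h, aqueous acetone/water 50:50 + 0.5% Tween 20; pre-em 1 d after sowing, post-em at 8 d. Glasshouse 24/16 °C, 14 h light, 65% RH, watered twice daily. Read % damage at 13 d, scored 1–5 (5=80-100%).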

[2] = system: Avena fatua (AVEFA); assay: as above
Procedure, shortened: as §1

[3] = system: Echinochloa crus-galli (ECHCG); assay: as above
Procedure, shortened: as §1

[4] = system: Lolium perenne (LOLPE); assay: as above
Procedure, shortened: as §1

[5] = system: Setaria faberi (SETFA); assay: as above
Procedure, shortened: as §1

[6] = system: Setaria faberi (SETFA); assay: Post-emergence herbicidal glasshouse test, percentage damage
Procedure, shortened: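 Percentage damage was scored 13 days after treatment on a five-point scale (1=0-19% to 5=80-100%). Treatments were post-emergence sprays on 8-day-old wheat, barley and SETFA plants in a glasshouse (24/16 °C day/night, 14 h light, 65% humidity), using acetone/water 50:50 with 0.5% Tween 20 at the stated rates. Wheat additionally received cloquintocet-mexyl safener at 50 g/ha.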

[7] = system: Alopecurus myosuroides (ALOMY); assay: as above
Procedure, shortened: as §1

[8] = system: Avena fatua (AVEFA); assay: as above
Procedure, shortened: as §1

[9] = system: Echinochloa crus-galli (ECHCG); assay: as above
Procedure, shortened: as §1

[10] = system: Lolium perenne (LOLPE); assay: as above
Procedure, shortened: as §1

Structure (SMILES) | ALOMY PRE percentage damage (five point scale) [1] | AVEFA PRE percentage damage (five point scale) [2] | ECHCG PRE percentage damage (five point scale) [3] | LOLPE PRE percentage damage (five point scale) [4] | SETFA PRE percentage damage (five point scale) [5] | SETFA POST percentage damage (five point scale) [6] | ALOMY POST percentage damage (five point scale) [7] | AVEFA POST percentage damage (five point scale) [8] | ECHCG POST percentage damage (five point scale) [9] | LOLPE POST percentage damage (five point scale) [10]
CC#Cc1cc(C)c(C2C(=O)CC3(CCN(C(=O)CCn4cccn4)CC3)CC2=O)c(C)c1 [Compound A195] | 4 (4=60-79%) | 5 (5=80-100%) | 2 (2=20-39%) | 5 (5=80-100%) | 5 (5=80-100%) | 5 (5=80-100%) | 5 (5=80-100%) | 5 (5=80-100%) | 5 (5=80-100%) | 5 (5=80-100%)
CC#Cc1cc(C)c(C2C(=O)CC3(CCN(C(=O)Cc4cnc[nH]4)CC3)CC2=O)c(C)c1 [Compound A196] | 3 (3=40-59%) | 4 (4=60-79%) | 5 (5=80-100%) | 5 (5=80-100%) | 5 (5=80-100%) | 5 (5=80-100%) | 5 (5=80-100%) | 5 (5=80-100%) | 5 (5=80-100%) | 5 (5=80-100%)
CC#Cc1cc(C)c(C2C(=O)CC3(CCN(C(=O)COC(F)F)CC3)CC2=O)c(C)c1 [Compound A197, 3-[2-(difluoromethoxy)acetyl]-9-(2,6-dimethyl-4-prop-1-ynyl-phenyl)-3-azaspiro[5.5]undecane-8,10-dione] | 5 (5=80-100%) | 5 (5=80-100%) | 5 (5=80-100%) | 5 (5=80-100%) | 5 (5=80-100%) | 5 (5=80-100%) | 5 (5=80-100%) | 5 (5=80-100%) | 5 (5=80-100%) | 5 (5=80-100%)
CC#Cc1cc(C)c(C2C(=O)CC3(CCN(C(=O)CCC#N)CC3)CC2=O)c(C)c1 [Compound A198, 4-[9-(2,6-dimethyl-4-prop-1-ynyl-phenyl)-8,10-dioxo-3-azaspiro[5.5]undecan-3-yl]-4-oxo-butanenitrile] | 5 (5=80-100%) | 4 (4=60-79%) | 5 (5=80-100%) | 5 (5=80-100%) | 5 (5=80-100%) | 5 (5=80-100%) | 5 (5=80-100%) | 5 (5=80-100%) | 5 (5=80-100%) | 5 (5=80-100%)
CC#Cc1cc(C)c(C2C(=O)CC3(CCN(C(=O)COC(F)(F)F)CC3)CC2=O)c(C)c1 [Compound A199] | 5 (5=80-100%) | 5 (5=80-100%) | 5 (5=80-100%) | 5 (5=80-100%) | 5 (5=80-100%) | 5 (5=80-100%) | 5 (5=80-100%) | 5 (5=80-100%) | 5 (5=80-100%) | 5 (5=80-100%)
CC#Cc1cc(C)c(C2C(=O)CC3(CCN(C(=O)COCCCl)CC3)CC2=O)c(C)c1 [Compound A200] | 5 (5=80-100%) | 4 (4=60-79%) | 5 (5=80-100%) | 5 (5=80-100%) | 5 (5=80-100%) | 5 (5=80-100%) | 5 (5=80-100%) | 5 (5=80-100%) | 5 (5=80-100%) | 5 (5=80-100%)
C=CCOCC(=O)N1CCC2(CC1)CC(=O)C(c1c(C)cc(C#CC)cc1C)C(=O)C2 [Compound A201] | 5 (5=80-100%) | 4 (4=60-79%) | 5 (5=80-100%) | 5 (5=80-100%) | 5 (5=80-100%) | 5 (5=80-100%) | 5 (5=80-100%) | 5 (5=80-100%) | 5 (5=80-100%) | 5 (5=80-100%)
CC#Cc1cc(C)c(C2C(=O)CC3(CCN(C(=O)COC4CC4)CC3)CC2=O)c(C)c1 [Compound A202] | 5 (5=80-100%) | 5 (5=80-100%) | 5 (5=80-100%) | 5 (5=80-100%) | 5 (5=80-100%) | 5 (5=80-100%) | 5 (5=80-100%) | 5 (5=80-100%) | 5 (5=80-100%) | 5 (5=80-100%)
CC#Cc1cc(C)c(C2=C(OC(=O)C3CC3)CC3(CCN(C(=O)C4CC4)CC3)CC2=O)c(C)c1 [Compound P1, [3-(cyclopropanecarbonyl)-9-(2,6-dimethyl-4-prop-1-ynyl-phenyl)-10-oxo-3-azaspiro[5.5]undec-8-en-8-yl] cyclopropanecarboxylate] | 5 (5=80-100%) | 5 (5=80-100%) | 5 (5=80-100%) | 5 (5=80-100%) | 5 (5=80-100%) | 5 (5=80-100%) | 5 (5=80-100%) | 5 (5=80-100%) | 5 (5=80-100%) | 5 (5=80-100%)
CC#Cc1cc(C)c(C2=C(OC(=O)c3ccccc3)CC3(CCN(C(=O)c4ccccc4)CC3)CC2=O)c(C)c1 [Compound P2] | 5 (5=80-100%) | 5 (5=80-100%) | 5 (5=80-100%) | 5 (5=80-100%) | 5 (5=80-100%) | 5 (5=80-100%) | 5 (5=80-100%) | 5 (5=80-100%) | 5 (5=80-100%) | 5 (5=80-100%)
CC#Cc1cc(C)c(C2=C(OC(=O)C3CCC3)CC3(CCN(C(=O)C4CCC4)CC3)CC2=O)c(C)c1 [Compound P3] | 5 (5=80-100%) | 5 (5=80-100%) | 5 (5=80-100%) | 5 (5=80-100%) | 5 (5=80-100%) | 5 (5=80-100%) | 5 (5=80-100%) | 5 (5=80-100%) | 5 (5=80-100%) | 5 (5=80-100%)
